The values that follow come from patent publication USRE38103E1, “5-methanesulfonamido-1-indanones as an inhibitor of cyclooxygenase-2” (Merck Frosst Canada & Co., priority 1992, dated 2003).

Data set [1] has as its target T1, cyclooxygenase-2 (Homo sapiens, UniProt P35354).
T1 construct: Cells used for whole cell assays, and from which microsomes were prepared for microsomal assays, were human osteosarcoma 143 cells; endogenous in cells; host or cells: human osteosarcoma 143 cells (whole cells or microsomes)
T1 sequence (P35354 18-604): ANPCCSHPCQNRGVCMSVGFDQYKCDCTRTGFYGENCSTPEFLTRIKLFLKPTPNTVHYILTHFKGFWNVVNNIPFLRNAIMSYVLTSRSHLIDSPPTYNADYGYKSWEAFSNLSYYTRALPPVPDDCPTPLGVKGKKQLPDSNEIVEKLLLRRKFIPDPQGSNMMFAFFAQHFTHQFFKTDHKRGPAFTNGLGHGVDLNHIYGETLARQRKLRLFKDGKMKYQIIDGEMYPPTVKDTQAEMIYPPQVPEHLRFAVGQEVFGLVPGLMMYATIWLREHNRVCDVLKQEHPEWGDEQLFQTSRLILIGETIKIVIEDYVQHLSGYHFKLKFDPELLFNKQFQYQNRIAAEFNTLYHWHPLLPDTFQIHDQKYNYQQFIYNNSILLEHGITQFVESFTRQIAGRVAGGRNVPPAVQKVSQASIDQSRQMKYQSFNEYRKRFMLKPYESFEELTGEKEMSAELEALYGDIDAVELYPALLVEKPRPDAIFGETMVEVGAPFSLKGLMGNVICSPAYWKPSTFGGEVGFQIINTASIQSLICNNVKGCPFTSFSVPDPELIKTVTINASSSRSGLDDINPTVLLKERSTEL
Kind of data set: Inhibition of cyclooxygenase-2 activity (PGE2 synthesis in response to arachidonic acid, radioimmunoassay; whole cell and microsomal assays). To be noted: for IC50: read-out: COX-2 IC50. It is filed as cell-based. How it is done:
(§1) Compounds were tested as inhibitors of cyclooxygenase activity in whole cell and microsomal cyclooxygenase assays. Both of these assays measured prostaglandin E2 synthesis in response to arachidonic acid, using a radioimmunoassay. Cells used for whole cell assays, and from which microsomes were prepared for microsomal assays, were human osteosarcoma 143 cells (which specifically express cyclooxygenase-2) and human U-937 cells (which specifically express cyclooxygenase-1). In these assays, 100% activity is defined as the difference between prostaglandin E2 synthesis in the absence and presence of arachidonate addition.
(§2) In the assay, inhibition is determined by measuring the amount of prostaglandin E2 (PGE2) synthesized in the presence of arachidonic acid, cyclooxygenase-1 or cyclooxygenase-2 and a putative inhibitor.

Data set [2] deals with T2, cyclooxygenase-1 (Homo sapiens, UniProt P23219).
T2 construct: human U-937 cells (which specifically express cyclooxygenase-1); endogenous in cells; host or cells: human U-937 cells (whole cells or microsomes)
T2 sequence (P23219 24-599): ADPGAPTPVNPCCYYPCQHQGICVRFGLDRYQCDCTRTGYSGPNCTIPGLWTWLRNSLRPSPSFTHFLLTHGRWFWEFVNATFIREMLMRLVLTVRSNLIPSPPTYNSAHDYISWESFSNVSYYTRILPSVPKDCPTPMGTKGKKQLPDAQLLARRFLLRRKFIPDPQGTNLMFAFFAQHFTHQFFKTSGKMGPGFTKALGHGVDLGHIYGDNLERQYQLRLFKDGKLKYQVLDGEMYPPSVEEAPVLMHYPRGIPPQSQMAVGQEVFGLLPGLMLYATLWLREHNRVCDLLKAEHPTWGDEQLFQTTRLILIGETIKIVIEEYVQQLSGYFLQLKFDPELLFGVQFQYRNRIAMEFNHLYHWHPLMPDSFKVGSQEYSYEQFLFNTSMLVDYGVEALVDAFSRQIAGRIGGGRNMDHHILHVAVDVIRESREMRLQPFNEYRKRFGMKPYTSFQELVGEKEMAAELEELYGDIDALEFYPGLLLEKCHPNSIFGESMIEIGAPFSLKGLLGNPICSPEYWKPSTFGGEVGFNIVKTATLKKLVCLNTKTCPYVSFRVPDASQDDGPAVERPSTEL
Nature of the data set: Inhibition of cyclooxygenase-1 activity (PGE2 synthesis in response to arachidonic acid, radioimmunoassay; whole cell and microsomal assays). To be noted: for COX-1 inhibition (result in words, with concentration): human U-937 cells, concentration stated in the cell; for IC50: table of prepared examples, read-out: COX-1 IC50. In kind it is cell-based. Here is the method: as §1, §2

Data set [3] in a line: Rat plasma levels. In kind it is in vivo.
Data set [4] relates to paw edema. Nature of the data set: Rat paw edema assay (carrageenan). In kind it is in vivo. To be noted: po; for Rat Paw EDEMA ED30: 1 hr before carrageenan, paw volume 3 hr later; for Rat Paw Edema ED50: table of prepared examples. Here is the method: One hr later, a line was drawn using a permanent marker at the level above the ankle in one hind paw to define the area of the paw to be monitored. The paw volume (VO) was measured using a plethysmometer (Ugo-Basile, Italy) based on the principle of water displacement. […] The animals were sacrificed by CO2 aphyxiation and the absence or presence of stomach lesions scored. Data were compared with the vehicle-control values and percent inhibition calculated. […] At least 6 animals were used at each concentration All treatment groups were coded to eliminate observer bias.

Data set [5] is described as follows: Monkey pharmacokinetics (Cmax, t1/2). In kind it is in vivo.

Read-outs that look alike come from different tables or passages of the source. Where only a bound is given, the exact number is not on record here.

In general, IC50 refers to the concentration at which inhibition is half-maximal. For the compound `Cc1ccccc1Sc1cc2c(cc1NS(C)(=O)=O)CCC2=O` [Compound 19], the IC50 in data set [1] (table of prepared examples) was determined as 100 nM.
For `CS(=O)(=O)Nc1cc2c(cc1Sc1ccc(Cl)cc1F)C(=O)CC2` [Compound 14], in data set [1] (table of prepared examples), the IC50 was determined as 13 nM.
Turning to `CS(=O)(=O)Nc1cc2c(cc1Oc1ccc(F)cc1F)C(=O)CC2` [Compound 3, Flosulide, reference compound], in data set [2], the “COX-1 inhibition (result in words, with concentration)” value was “Inactive at 50 μM” and the IC50 was greater than 50000 nM. For the same compound, in data set [3] (20 mpk), the “Rat Plasma Levels @ 1 hr” value was 48 @ 20 mpk μg/ml. Besides, in data set [4], the “Rat Paw EDEMA ED30” value was 1.1 ± .4 mpk and the “Rat Paw Edema ED50” value was 0.62 mpk. In addition, the “Monkey Cmax” value in data set [5] (10 mpk) is reported as 17 @ 10 mpk μg/ml. Also, in data set [5] (n = 2, estimated), the “t½ Monkey (n = 2) (Estimated)” value was less than 4 h.
Turning to `CS(=O)(=O)Nc1cc2c(cc1Sc1ccc(Cl)cc1)C(=O)CC2` [Compound 9], in data set [1] (table of prepared examples), the IC50 amounted to 100 nM.
With `CS(=O)(=O)Nc1cc2c(cc1Sc1ccc(C(F)(F)F)cc1)C(=O)CC2` [Compound 22], the IC50 in data set [1] (table of prepared examples) turned out to be 50 nM.
Same read-out and setting: under `Cc1ccc(Sc2cc3c(cc2NS(C)(=O)=O)CCC3=O)cc1` [Compound 20] stands 50 nM.
As to `CS(=O)(=O)Nc1cc2c(cc1Sc1ccccc1)C(=O)CC2` [Compound 6], the IC50 is greater than 100000 nM in data set [2] and 50 nM in data set [1] (table of prepared examples). Besides, in data set [4], the “Rat Paw Edema ED50” value is listed as 0.16 mpk.
Take `CS(=O)(=O)Nc1cc2c(cc1Sc1ccc(F)cc1)C(=O)CC2` [Compound 8]: the IC50 in data set [1] (table of prepared examples) worked out at 100 nM.
Broadly, the Cmax is the peak of the concentration-time curve. As for `CS(=O)(=O)Nc1cc2c(cc1Sc1ccc(F)cc1F)C(=O)CC2` [Compound 12, 5-Methanesulfonamido-6-(2,4-difluorophenylthio)-1-indanone], in data set [2], the IC50 was greater than 10000 nM. For the same compound, the “Rat Plasma Levels @ 1 hr” value in data set [3] (10 mpk) was 70 @ 10 mpk μg/ml. Moreover, the results for the “COX-2 % INHB” value in data set [1] (CONC 10 nM), in data set [1] (CONC 100 nM) and in data set [1] (CONC 1000 nM) were 43%, 87% and 91%, respectively. In addition, the “Rat Paw EDEMA ED30” value in data set [4] is reported as 0.3 ± .1 mpk. Further, the “Rat Paw Edema ED50” value in data set [4] turned out to be 0.3 mpk. Further, in data set [5] (in vivo, 5 mg/kg, 5 mpk), the Cmax turned out to be 35000 ng/mL. Besides, in data set [5] (in vivo, n = 2, estimated, read-out: t½ Monkey (n = 2) (Estimated)), the half-life was greater than 9 h.
For `CS(=O)(=O)Nc1cc2c(cc1Sc1ccc(F)cc1Cl)C(=O)CC2` [Compound 16], the IC50 in data set [1] (table of prepared examples) turned out to be 11 nM.
`CS(=O)(=O)Nc1cc2c(cc1Oc1ccc(Br)cc1)C(=O)CC2` [Compound 2]: the IC50 in data set [1] (table of prepared examples) was found to be 9 nM.
Regarding `CS(=O)(=O)Nc1cc2c(cc1Oc1ccc(Cl)cc1Cl)C(=O)CC2` [Compound 4, 5-Methanesulfonamido-6-(2,4-dichlorophenoxy)-1-indanone], in data set [2], the “COX-1 inhibition (result in words, with concentration)” value is given as “Inactive at 100 μM” and the IC50 was greater than 100000 nM. For the same compound, in data set [1] (human osteosarcoma 143 cells, PGE2 synthesis), the IC50 turned out to be 8 nM. Besides, in data set [4], the “Rat Paw EDEMA ED30” value came to 0.22 mpk and the “Rat Paw Edema ED50” value was 0.22 mpk.
With `COc1ccc2c(c1)c(CC(=O)O)c(C)n2C(=O)c1ccc(Cl)cc1` [INDOMETHACIN, Indomethacin, reference compound], in data set [4], the “Rat Paw EDEMA ED30” value is on record as 1.1 ± .3 mpk.
Turning to `CS(=O)(=O)Nc1cc2c(cc1Sc1ccc(I)cc1)C(=O)CC2` [Compound 11], in data set [1] (table of prepared examples), the IC50 was determined as 10 nM.
Same read-out and setting: the result for `C=Cc1ccc(Sc2cc3c(cc2NS(C)(=O)=O)CCC3=O)cc1` [Compound 24] reads 100 nM.
Same read-out and setting: under `CS(=O)(=O)Nc1cc2c(cc1Oc1ccccc1)C(=O)CC2` [Compound 1, reference compound] stands 30 nM.
